The target in test [1] is T1, Akt1 (Homo sapiens, UniProt P31749). Put plainly: Akt1 inhibition, Z'-LYTE kit fluorescent-enzymatic assay. The following applies: for Ki: 10 μM compound 1, 20 μM compound 2, 50 μM compound 3, increasing ATP, Lineweaver-Burk. It counts as biochemical. As to the method: Here the top 4000 compounds out of 50000 docked compounds were selected using FlexX and Drugscore (BioSolvIT). The top 4000 docked structures were further evaluated and ranked according to Goldscore and Chemscore functions (CSCORE). A list of common 200 compounds was then selected among ranked top 700 compounds according to both scoring functions (FIG. 1B). […] The remaining 100 compounds were experimentally tested up to 30 μM against Akt1. The inhibitory activity was evaluated for the selected compounds by using Z'-LYTE™ kit assay provided by Invitrogen Corporation (19). […] Corning® 384-well low volume plates (20 μl) were used. The fluorescent-enzymatic assay has been performed following the protocol provided by Invitrogen Corporation, using a fluorescent plate reader (Victor2, Perkin-Elmer). […] C) Lineweaver-Burk Km and Km(app) evaluation for Akt1. Each measurement was performed in triplicate. […] The Ki and the Km(app) were calculated at fixed inhibitor concentrations, as reported in the text. All constant values were definitely evaluated by fitting the data to the Lineweaver-Burk plot; D) Akt1 inhibition assay using GSK-3 as a substrate. Comparison of compounds 1 and 2 (Table 1) with H89 at 10 μM. E) Dose response for compound 1. Akt (10 ng of recombinant enzyme) in 25 μl 1× kinase buffer (25 mM Tris, pH 7.5; 5 mM n-glycerol phosphate; 2 mM dithiothreitol; 0.1 mM Na3VO4; and 10 mM MgCl2), was mixed with 2.5 μl DMSO (1% stock) or MPA-D (100 μM in 1% DMSO). Samples were incubated on ice for 1.5 hours at which time 1 μg of GSK-3 fusion protein (Cell Signaling), which served as the substrate, was added followed by ATP (200 μM) to each reaction mixture. After the suspensions were incubated at 30° C. for 20 min, the reaction was terminated by the addition of 3×SDS sample buffer (187.5 mM Tris-HCl, pH 6.8; 6% SDS; 30% glycerol; 150 mM dithiothreitol; and 0.03% bromophenol blue). The samples were boiled for 5 min, and the proteins were separated on a 12% SDS polyacrylamide gel and subsequently transferred to a nitrocellulose membrane. Membranes were incubated with rabbit polyclonal anti-phospho-GSK-3α/β (Ser21/9) (Cell Signaling).
T1 sequence (P31749 whole entry): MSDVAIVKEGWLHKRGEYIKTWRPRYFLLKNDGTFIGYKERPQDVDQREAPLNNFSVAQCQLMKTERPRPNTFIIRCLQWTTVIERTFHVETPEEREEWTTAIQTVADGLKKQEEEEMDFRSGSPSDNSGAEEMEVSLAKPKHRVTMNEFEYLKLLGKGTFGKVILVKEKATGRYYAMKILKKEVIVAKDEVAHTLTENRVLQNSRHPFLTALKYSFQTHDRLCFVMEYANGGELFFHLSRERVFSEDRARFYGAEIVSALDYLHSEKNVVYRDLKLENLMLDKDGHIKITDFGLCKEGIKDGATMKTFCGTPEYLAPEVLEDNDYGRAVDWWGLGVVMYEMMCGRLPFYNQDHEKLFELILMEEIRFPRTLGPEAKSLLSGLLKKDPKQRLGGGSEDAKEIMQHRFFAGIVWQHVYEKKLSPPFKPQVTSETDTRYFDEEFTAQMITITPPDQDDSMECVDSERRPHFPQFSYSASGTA
For these purposes, we initially determined the Km and the Vmax of the enzymatic reaction involving the peptide provided by the Z'-LYTE™ kit assay and Akt1 by varying the concentration of ATP. The above parameters appeared to be 7.9 μM and 0.0205 μmol min^−1 mg^−1, respectively. […] Because all our inhibitors affected the Km rather than the Vmax of the reaction (FIG. 2C), they can be truly considered ATP-competitive inhibitors of Akt1.

The target in test [2] is T1, Akt1. Nature of the test: Akt1 inhibition assay using GSK-3 as a substrate (immuno-blotting with anti-phospho-GSK-3α/β). It counts as biochemical. As to the method:
Here the top 4000 compounds out of 50000 docked compounds were selected using FlexX and Drugscore (BioSolvIT). The top 4000 docked structures were further evaluated and ranked according to Goldscore and Chemscore functions (CSCORE). A list of common 200 compounds was then selected among ranked top 700 compounds according to both scoring functions (FIG. 1B). […] The remaining 100 compounds were experimentally tested up to 30 μM against Akt1. The inhibitory activity was evaluated for the selected compounds by using Z'-LYTE™ kit assay provided by Invitrogen Corporation (19). […] Corning® 384-well low volume plates (20 μl) were used. The fluorescent-enzymatic assay has been performed following the protocol provided by Invitrogen Corporation, using a fluorescent plate reader (Victor2, Perkin-Elmer). […] C) Lineweaver-Burk Km and Km(app) evaluation for Akt1. Each measurement was performed in triplicate. […] The Ki and the Km(app) were calculated at fixed inhibitor concentrations, as reported in the text. All constant values were definitely evaluated by fitting the data to the Lineweaver-Burk plot; D) Akt1 inhibition assay using GSK-3 as a substrate. Comparison of compounds 1 and 2 (Table 1) with H89 at 10 μM. E) Dose response for compound 1. […]

[3] abbreviates: FIG. 2 legend, read-out: IC50 value.
Setting [4] is: Table 2, derivatives of Compound 1, read-out: IC50.

Several values for one entry are separate records, joined by “and”; a condition that tells them apart may be missing. Equal values may be shown once. Entries after “also recorded” stand apart in the source; their conditions may differ. Read-outs that look alike come from different tables or passages of the source.

A word on the Ki: it is a measure of affinity in units of concentration, obtained from inhibition or displacement. Usually IC50 stands for the concentration needed to halve the response being measured. Usually Hill slope stands for a measure of the steepness of the concentration-response curve.

For `CC1=C(C#N)c2nc(N)c(C#N)c(C)c2/C1=C/c1ccc(-c2ccc(C(=O)O)c(Cl)c2)o1` [Compound 1], the “IC50 values (in words)” value against Akt1 [1] is “low-micromolar range”. This compound also displayed a Ki at Akt1 [1] of 1.1 µM. For the same compound, the IC50 at Akt1 [1] (setting [3]) is 2.3 µM and 2.6 µM; at Akt1 [1] (Table 1, read-out: IC50), 2.6 µM; on Akt1 [1] (setting [4]), 2.6 µM. The compound further came in with a Hill slope on Akt1 [1] (IC50 curve, FIG. 2A) of 1.1. Further, the “inhibition of GSK-3 phosphorylation” value on Akt1 [2] is on record as “low micromolar range”.
`O=C(O)c1cc(-c2ccc(C=C3C(=O)c4ccccc4C3=O)o2)ccc1O` [Compound 3] came in with a Ki on Akt1 [1] of 20.8 µM. The IC50 on Akt1 [1] (setting [3]) was found to be 25.1 µM.
Take `CC1=C(C#N)c2nc(N)c(C#N)c(C)c2C1=Cc1ccc(-c2ccc(C(=O)O)cc2)o1` [Compound 4]: the “inhibitory activity against Akt1 kinase (in words)” value against Akt1 [1] was “appreciable inhibition in the micromolar range; also recorded: limited inhibitory activity”.
As to `CC1=C(C#N)c2nc(N)c(C#N)c(C)c2C1=Cc1ccc(-c2cccc(C(=O)O)c2)o1` [Compound 5], the “inhibitory activity against Akt1 kinase (in words)” value against Akt1 [1] is recorded as “appreciable inhibition in the micromolar range; also recorded: limited inhibitory activity”. Also, on Akt1 [1] (setting [4]), the IC50 was found to be 60.2 µM.

Values taken from patent US20120190707A1, “SELECTIVE INHIBITORS OF AKT AND METHODS OF USING SAME” (priority 2008, published 2012).
